We go through one sequence from US20110288036A1, “Methods for Treating or Preventing Vascular Graft Failure” (priority 2010, published 2011).

For one data set, the system named is JNK. Kind of data set: JNK radiometric kinase assay. The class given is biochemical. To be noted: peptide 100 μM. An excerpt:
A commercial radiometric assay service was used to test the specificity and potency of MMI-0100 ([…]; SEQ ID NO: 1) by measuring its half maximal inhibitory concentrations (IC50). This quantitative assay measures how much MK2 inhibitor (MMI-0100; […] (SEQ ID NO: 1)) is needed to inhibit 50% of a given biological process or component of a process (i.e., an enzyme, cell, or cell receptor). Specifically, in these assays, a positively charged substrate is phosphorylated with a radiolabeled phosphate group from an ATP if the kinase is not inhibited by an inhibitor peptide. The positively charged substrate then is attracted to a negatively charged filter membrane, quantified with a scintillation counter, and compared to a 100% activity control. ATP concentrations within 15 μM of the apparent Km for ATP were chosen since an ATP concentration near the Km may allow for the kinases to have the same relative amount of phosphorylation activity. […]
For the JNK (c-Jun N-terminal Kinase) radiometric assay, 5-10 mU of JNK was incubated with 50 mM Tris pH 7.5, 0.1 mM EGTA, 0.1% b-mercaptoethanol, 3 μM ATF2 (a substrate for JNK), 10 mM MgAcetate, and 10 μM of [y-^33P-ATP] in the final reaction volume of 25 μl. […] The washed P30 filtermat was dried and its radioactivity was measured by scintillation counter.
(§1) IC50 values for inhibitor peptides were determined using Millipore's IC50 Profiler Express service. […]

The next data set concerns the target T1, MKK4 (Mus musculus, UniProt P47809).
T1 construct: purchased Millipore (KinaseProfiler service)
Kind of data set: MKK4 radiometric kinase assay. The class given is biochemical. To be noted: peptide 100 μM. An excerpt: (§2) A commercial radiometric assay service was used to test the specificity and potency of MMI-0100 ([…]; SEQ ID NO: 1) by measuring its half maximal inhibitory concentrations (IC50). This quantitative assay measures how much MK2 inhibitor (MMI-0100; […] (SEQ ID NO: 1)) is needed to inhibit 50% of a given biological process or component of a process (i.e., an enzyme, cell, or cell receptor). Specifically, in these assays, a positively charged substrate is phosphorylated with a radiolabeled phosphate group from an ATP if the kinase is not inhibited by an inhibitor peptide. The positively charged substrate then is attracted to a negatively charged filter membrane, quantified with a scintillation counter, and compared to a 100% activity control. ATP concentrations within 15 μM of the apparent Km for ATP were chosen since an ATP concentration near the Km may allow for the kinases to have the same relative amount of phosphorylation activity. The individual conditions for each radiometric assay are as follows.
The reaction was initiated by the addition of the MgATP. After incubation for 40 minutes at room temperature, 5 μl of the incubation mix was used to initiate the JNK radiometric assay described above.
(§3) IC50 values for inhibitor peptides were determined using Millipore's IC50 Profiler Express service. The IC50 value was estimated from a 10-point curve of one-half log dilutions. […]

A further data set addresses T2, MKK6 (Homo sapiens, UniProt P52564).
T2 construct: purchased Millipore (KinaseProfiler service)
Put plainly: MKK6 radiometric kinase assay. The class given is biochemical. The note with it: peptide 100 μM.
From the text: as §2
The reaction was initiated by adding the MgATP. After incubation for 40 minutes at room temperature, 5 μl of the incubation mix was used to initiate the p38MAPK radiometric assay described above.
as §3

The target in another data set is T3, PRAK (Homo sapiens, UniProt Q8IW41).
T3 construct: purchased Millipore (KinaseProfiler service)
T3 sequence (Q8IW41 whole entry, species assumed): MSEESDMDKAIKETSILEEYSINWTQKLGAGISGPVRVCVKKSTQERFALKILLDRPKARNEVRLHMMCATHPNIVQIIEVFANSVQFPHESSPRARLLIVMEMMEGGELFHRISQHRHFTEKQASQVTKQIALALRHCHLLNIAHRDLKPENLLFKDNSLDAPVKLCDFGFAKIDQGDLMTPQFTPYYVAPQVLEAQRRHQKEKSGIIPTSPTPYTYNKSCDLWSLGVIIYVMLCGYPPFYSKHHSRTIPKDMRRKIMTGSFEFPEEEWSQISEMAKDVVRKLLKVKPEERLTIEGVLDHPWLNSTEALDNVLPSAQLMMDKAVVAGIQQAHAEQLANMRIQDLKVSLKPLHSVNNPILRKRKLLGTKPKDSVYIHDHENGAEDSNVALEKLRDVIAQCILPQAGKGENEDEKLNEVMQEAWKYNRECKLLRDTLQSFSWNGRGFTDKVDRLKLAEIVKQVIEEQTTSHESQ
Put plainly: PRAK radiometric kinase assay. The note with it: peptide 100 μM. The class given is biochemical.
From the text: as §2, with “follows. […]” for “follows.”
as §1

Data set [1] concerns human endothelial cell (EC). Kind of data set: Phase contrast morphology, endothelial cells. The class given is cell-based. To be noted: 24 hours treatment, vs control cells. The method, then: In order to determine the effect of pharmacological doses of MMI-0100 ([…]; SEQ ID NO: 1) on human endothelial cell (EC) and smooth muscle cell (SMC) proliferation, human EC and SMC cultures were treated with three concentrations (0.25 mM, 0.5 mM, and 1 mM) of MMI-0100 ([…] (SEQ ID NO: 1)) following pre-treatment with TNF-α.

The subject of data set [2] is mouse lung endothelial cells (MLEC). Put plainly: Murine endothelial cell proliferation by direct cell counting. The class given is cell-based. To be noted: physiological doses. An excerpt:
Primary cultures of mouse lung endothelial cells (MLEC) were isolated as previously described (Ackah, E. et al., J. Clin Invest., 2005, 115(8): 2119-27; Muto, A. et al., J. Exp. Med., 2011, 208(3): 561-575). Mouse lung endothelial cells (MLECs) were isolated from 3-week-old wild type mice. Briefly, mice were euthanized with an overdose of ketamine/xylazine and the lungs excised, minced, and digested with 0.1% collagenase in RPMI medium. The digest was homogenized by passing multiple times through a 14-gauge needle, filtered through a 150-μm tissue sieve, and the cell suspension was plated on 0.1% gelatin-coated dishes. Endothelial cells were then isolated by immunoselection with PECAM-1- and ICAM-2-conjugated magnetic beads. After immunoselection with magnetic beads, endothelial cells were immortalized with polyoma middle T-antigen. Isolated MLEC were maintained with EBM-2/EGM-2 MV SingleQuot® Kit Supplement & Growth Factors (Lonza) containing 15% fetal bovine serum. Cell proliferation in MLEC was measured at 24 and 72 hours after MMI-0100 treatment by direct cell counting after trypsin treatment.

T1 sequence (P47809 whole entry): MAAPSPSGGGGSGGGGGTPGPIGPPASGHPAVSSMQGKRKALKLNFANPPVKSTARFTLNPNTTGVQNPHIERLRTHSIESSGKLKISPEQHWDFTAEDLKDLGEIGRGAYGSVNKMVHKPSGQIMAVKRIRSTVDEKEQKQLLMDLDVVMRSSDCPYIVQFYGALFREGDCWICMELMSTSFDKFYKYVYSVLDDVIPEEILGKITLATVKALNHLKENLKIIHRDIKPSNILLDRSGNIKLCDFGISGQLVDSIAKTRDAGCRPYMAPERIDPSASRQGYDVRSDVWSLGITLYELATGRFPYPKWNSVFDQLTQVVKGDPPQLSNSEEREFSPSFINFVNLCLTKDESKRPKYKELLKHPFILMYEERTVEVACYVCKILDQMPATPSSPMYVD
T2 sequence (P52564 whole entry, species assumed): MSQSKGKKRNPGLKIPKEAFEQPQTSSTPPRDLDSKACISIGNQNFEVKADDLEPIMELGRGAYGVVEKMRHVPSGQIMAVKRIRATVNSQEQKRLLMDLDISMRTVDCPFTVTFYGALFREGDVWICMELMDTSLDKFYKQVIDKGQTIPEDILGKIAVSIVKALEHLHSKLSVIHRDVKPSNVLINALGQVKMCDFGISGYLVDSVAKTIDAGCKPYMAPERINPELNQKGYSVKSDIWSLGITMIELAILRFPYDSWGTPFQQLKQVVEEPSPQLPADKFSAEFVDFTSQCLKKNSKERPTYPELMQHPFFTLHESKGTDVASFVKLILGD

For YARAAARQARAKALARQLGVAA [MMI-0100], the “Percent Activity, JNK” value with JNK came out at 92%. On MKK4, the “Percent Activity, MKK4” value is recorded as 90%. Moreover, at MKK6, the “Percent Activity, MKK6” value came out at 50%. Further, on PRAK, the “Percent Activity, PRAK” value turned out to be 100%. In addition, the “morphological changes of EC” value in data set [1] is “no obvious morphological changes”. Moreover, the “murine EC proliferation” value in data set [2] is “did not induce significant murine EC proliferation”.
